# According to patent US20230279020A9, “CARM1 INHIBITORS AND USES THEREOF” (Epizyme, Inc., priority 2013, published 2023):
# How the values were obtained:
# NCI-H929 = experiment: Human myeloma cell line 14-day proliferation assay (NCI-H929); assay type: cell-based; details: NCI-H929 Human Multiple Myeloma cell line, varying doses, FIG. 1A
# Method: (§1) Human Multiple Myeloma cell lines NCI-H929 (FIG. 1A) and U266B1 (FIG. 1B) were treated with varying doses of 304-1a (medium grey data points), 23-3 (light grey data points), and 113-3 (black data points) in a 14-day proliferation assay. At the end of the experiment, total cell number was determined for each cell line for different doses of 304-1a, 23-3, and 113-3.
# Human CARM1 (PRMT4) = Human CARM1 (PRMT4) (Homo sapiens (Human), UniProt Q86X55); experiment: CARM1 enzyme assay on peptide substrate (3H-SAM Flashplate); details: Biochemical potencies, classification codes; read-out: Biochem IC50
# U266B1 = experiment: Human myeloma cell line 14-day proliferation assay (U266B1); assay type: cell-based; details: U266B1 Human Multiple Myeloma cell line, varying doses, FIG. 1B
# Method: as §1
# Sequence of Human CARM1 (PRMT4) (Q86X55 other isoform, or with tags, fused parts or gaps isoform Q86X55-1): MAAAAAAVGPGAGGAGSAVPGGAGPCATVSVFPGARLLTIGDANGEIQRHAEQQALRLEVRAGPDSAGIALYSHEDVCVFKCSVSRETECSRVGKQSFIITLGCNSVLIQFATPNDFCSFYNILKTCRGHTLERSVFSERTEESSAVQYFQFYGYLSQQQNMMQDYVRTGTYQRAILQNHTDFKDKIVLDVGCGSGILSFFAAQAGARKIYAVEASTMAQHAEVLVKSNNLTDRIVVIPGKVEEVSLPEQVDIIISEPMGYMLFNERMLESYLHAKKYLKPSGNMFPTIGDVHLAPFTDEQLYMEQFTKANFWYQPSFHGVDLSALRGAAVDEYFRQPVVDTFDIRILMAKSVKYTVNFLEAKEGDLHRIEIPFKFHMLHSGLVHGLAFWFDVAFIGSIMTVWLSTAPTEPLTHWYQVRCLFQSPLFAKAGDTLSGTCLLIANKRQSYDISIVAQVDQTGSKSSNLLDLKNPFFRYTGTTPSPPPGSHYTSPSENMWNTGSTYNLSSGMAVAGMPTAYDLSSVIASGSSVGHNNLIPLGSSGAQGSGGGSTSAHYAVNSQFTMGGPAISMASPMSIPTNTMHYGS
IC50 (Human CARM1 (PRMT4)) [nM],Compound,cell proliferation (total cell number) (NCI-H929),cell proliferation (total cell number) (U266B1)
< 100,CNC[C@@H](O)COc1ccc(Cl)c(-c2nc(-c3c(C)noc3C)c(C)c(N3Cc4cccnc4C3)n2)c1 [Example 113-3],decreased the proliferation,decreased the proliferation
< 100,CNC[C@@H](O)COc1ccc(Cl)c(-c2nc(NC3CCN(C(=O)OC)CC3)c(Cl)c(-c3c(C)noc3C)n2)c1 [Example 304-1a],decreased the proliferation,decreased the proliferation
